# According to patent publication US5436229A, “Bisulfite adducts of arginine aldehydes” (Eli Lilly and Company, priority 1994, dated 1995):
# Non-standard residues stand in square brackets, D forms with d. Residues, ends and D or L forms follow the SMILES beside them. dNMeCha = CN[C@H](CC1CCCCC1)C(=O)O
# Tests used:
# human thrombin = human thrombin (Homo sapiens, UniProt P00734); assay: Thrombin amidase inhibition (Kass), chromogenic substrate; assay type: biochemical
# Outline: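 Kass, in liter per mole, was averaged over several compound concentrations, using free thrombin from a rate standard curve and free inhibitor as added minus bound. Hydrolysis of chromogenic substrate (0.25 mg/ml solution) was monitored at 405 nm with human thrombin (8 NIH units/ml solution) in Tris-NaCl buffer pH 7.4, compound in 50% aqueous methanol.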
# Bovine trypsin = target: T1, Bovine trypsin (Bos taurus, UniProt P00760); assay: Serine protease inhibition (Kass), trypsin; assay type: biochemical
# T1 construct: Bovine trypsin is purchased from Worthington Biochemicals; purchased Worthington Biochemicals, Freehold, N.J
# T1 sequence (P00760 24-246): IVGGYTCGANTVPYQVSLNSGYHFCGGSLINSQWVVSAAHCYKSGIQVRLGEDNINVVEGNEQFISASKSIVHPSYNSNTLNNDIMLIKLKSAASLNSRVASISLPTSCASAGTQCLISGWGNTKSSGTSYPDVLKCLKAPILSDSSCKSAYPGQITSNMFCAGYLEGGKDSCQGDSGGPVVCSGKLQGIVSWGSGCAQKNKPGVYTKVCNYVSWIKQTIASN
# Outline: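 Chromogenic p-nitroanilide substrate assays run as for human thrombin; trypsin with N-Benzoyl-Phe-Val-Arg-p-nitroanilide, human factor Xa with N-Benzoyl-Ile-Glu-Gly-Arg-p-nitroanilide. Values are association constants (Kass).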
# Human plasmin = target: T2, Human plasmin (Homo sapiens, UniProt P00747); assay: Serine protease inhibition (Kass), plasmin; assay type: biochemical
# T2 construct: Human plasmin is purchased from Boehringer Mannheim; purchased Boehringer Mannheim, Indianapolis, Ind
# T2 sequence (P00747 581-810 limits assumed): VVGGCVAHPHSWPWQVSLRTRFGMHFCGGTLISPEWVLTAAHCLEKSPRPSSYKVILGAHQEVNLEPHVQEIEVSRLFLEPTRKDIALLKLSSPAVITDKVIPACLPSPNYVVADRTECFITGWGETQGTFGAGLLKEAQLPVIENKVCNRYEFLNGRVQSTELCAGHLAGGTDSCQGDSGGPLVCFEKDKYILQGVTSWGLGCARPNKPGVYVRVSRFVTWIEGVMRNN
# T2 sequence (P00747 97-580 partner limits assumed): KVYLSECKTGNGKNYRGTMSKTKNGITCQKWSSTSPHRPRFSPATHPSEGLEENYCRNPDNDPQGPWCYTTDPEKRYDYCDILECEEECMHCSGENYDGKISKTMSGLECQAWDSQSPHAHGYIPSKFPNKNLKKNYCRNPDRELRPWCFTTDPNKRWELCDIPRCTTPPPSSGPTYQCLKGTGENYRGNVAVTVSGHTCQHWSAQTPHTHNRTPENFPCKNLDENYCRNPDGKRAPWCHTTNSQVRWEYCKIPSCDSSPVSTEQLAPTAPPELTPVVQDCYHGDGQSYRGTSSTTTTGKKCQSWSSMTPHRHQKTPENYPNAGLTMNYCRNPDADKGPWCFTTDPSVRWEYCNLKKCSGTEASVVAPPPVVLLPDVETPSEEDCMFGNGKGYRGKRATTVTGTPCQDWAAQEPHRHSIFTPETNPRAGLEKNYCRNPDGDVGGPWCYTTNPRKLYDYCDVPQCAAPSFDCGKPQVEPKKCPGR
# Outline: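 Kass values come from the thrombin chromogenic procedure applied to fibrinolytic proteases. t-PA (nt-PA single chain, or mt-PA6) paired with substrate H-D-Ile-Pro-Arg-p-nitroanilide; human plasmin paired with H-D-Val-Leu-Lys-p-nitroanilide.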
# [1] = target: T3, tissue plasminogen activator (t-PA) (Homo sapiens, UniProt P00750); assay: Serine protease inhibition (Kass), t-PA; assay type: biochemical
# T3 construct: purchased American Diagnostica, Greenwich, Conn
# T3 sequence (P00750 36-562): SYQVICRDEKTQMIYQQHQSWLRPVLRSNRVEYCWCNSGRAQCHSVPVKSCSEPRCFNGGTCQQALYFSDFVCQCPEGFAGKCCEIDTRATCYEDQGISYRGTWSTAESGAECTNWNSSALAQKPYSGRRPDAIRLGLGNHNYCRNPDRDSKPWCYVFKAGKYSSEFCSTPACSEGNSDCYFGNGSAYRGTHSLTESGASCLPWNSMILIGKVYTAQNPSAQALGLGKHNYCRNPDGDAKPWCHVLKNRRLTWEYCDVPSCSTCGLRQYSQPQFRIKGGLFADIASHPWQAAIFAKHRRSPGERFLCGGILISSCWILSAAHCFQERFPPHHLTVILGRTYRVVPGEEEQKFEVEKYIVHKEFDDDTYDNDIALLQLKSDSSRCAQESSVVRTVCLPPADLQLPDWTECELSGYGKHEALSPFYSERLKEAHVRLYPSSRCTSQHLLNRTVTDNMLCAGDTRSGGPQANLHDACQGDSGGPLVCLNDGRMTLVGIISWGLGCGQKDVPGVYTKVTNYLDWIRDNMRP
# [2] = Index of Bioavailability (plasma TT AUC, oral vs i.v.); assay type: in vivo; conditions: rats, oral vs i.v. bolus
# Text: Assays are done in duplicate and averaged.
# Each sample population represents alternating sequential time points.
SMILES,Kass Human Thrombin (human thrombin),Kass Trypsin (Bovine trypsin),Kass Plasmin (Human plasmin),Kass t-PA [1],Percent Relative Activity (Index of Bioavailability) [2]
"N=C(N)NCCCC(C=O)NC(=O)C1CCCN1C(=O)C1CC2CCCCC2CN1.O=S(=O)(O)O [80 (Step F), D-3-(cis)Piq-Pro-Arg-H.H2 SO4]",56 L/mol × 10^6,183 L/mol × 10^6,1.6 L/mol × 10^6,0.5 L/mol × 10^6,46%
"CN[C@H](CC1CCCCC1)C(=O)N1CCC[C@H]1C(=O)N[C@H](C=O)CCCNC(=N)N.Cl [Example 75, N-methyl-D-cyclohexylalanyl-L-Prolinyl-L-Arginine Aldehyde Hydrochloride] (H-[dNMeCha]-Pro-Arg-aldehyde)",590 L/mol × 10^6,160 L/mol × 10^6,7.7 L/mol × 10^6,0.37 L/mol × 10^6,13%
